# Assay results as given in US20150328245A1, “Agents for Eliminating Tumour-Initiating Cells” (priority 2012, published 2015).
# What was measured:
# cancer cell lines = test: In vitro colorimetric cell death assay (MTT), overall statement; type: cell-based
# Procedure: (§1) It's an in vitro colorimetric assay for assessing cell viability where the cells are grown in Two-dimensional surface.
# (§2) An exemplary procedure for the assay follows. Cancer cells and normal cells were plated in a 96 well plate as per predetermined plating efficiency. The plate was incubated for 24 hours in a 5% CO2 atmosphere at 37 degrees Celsius, a range of concentrations of the compounds I-1, I-2 and I-3 as well as cisplatin (known chemotherapeutic agents) were added to the separate wells, the plate was incubated further for 48 hours in a 5% CO2 atmosphere, the plate was centrifuged twice at 3000 rpm for 3 minutes, the supernatant fluid was discarded, 100 uL of 0.5 mg/mL MTT solution was added and the plate was incubated for 4 hours in a 5% CO2 atmosphere at 37 degrees Celsius. The plate was then centrifuged twice at 3000 rpm for 3 minutes, supernatant, was aspirated very carefully, 200 uL DMSO was added to each well to solubilize MTT crystals and mixed well by shaking the plate, the plate was incubated for 10 minutes in a 5% CO2 atmosphere at 37 degrees Celsius, the plate placed on the shaker of an ELISA plate reader and the absorbance at 570 nm was measured, then the percentage of viable cells remaining was calculated by first subtracting the background absorbance then comparing to the absorbance of a non-drug-treated cell sample, and the results were plotted on a graph to determine the IC50 for the compounds and cisplatin.
# MDAMB231 [1] = test: In vitro soft agar colony forming growth assay; type: cell-based; details: Homo sapiens, MDA-MB-231, 168 h
# Procedure: (§3) The Soft Agar Assay for Colony Formation is considered the most stringent assay for detecting malignant transformation of cells. In this assay the cells are cultured in medium with low percentage of agar.
# (§4) An exemplary procedure for the assay follows.
# L929 = test: In vitro soft agar colony forming growth assay; type: cell-based; details: Mus musculus, L929, 168 h
# Procedure: as §3, §4
# HeLa = test: In vitro soft agar colony forming growth assay; type: cell-based; details: Homo sapiens, 168 h
# Procedure: as §3, §4
# [2] = In vivo maximum tolerated dose assay for compound I-1; parameters: species or system nude mice
# Procedure: In vivo maximum tolerated dose (MTD) toxicity assay was carried out to evaluate the highest dose of a pharmaceutical treatment that will produce the desired effect without unacceptable toxicity. The purpose of administering MTD is to determine whether long-term exposure to a compound might lead to unacceptable adverse health effects in a subject, when the level of exposure is not sufficient to cause premature mortality due to short-term toxic effects.
# An exemplary procedure for the in vivo maximum tolerated dose toxicity assay follows. A statistically appropriate number of male and female nude mice were injected with a single dose of either 30 mg/kg, 10 mg/kg, 5 mg/kg, and 2.5 mg/kg of a compound I-1 interperitoneally (i.p.) on day zero. The number of mice surviving from each dose group after the first through fourth days was recorded, and the Maximum Tolerated Dose (“MTD”; e.g. the dose at which 100% of the animals survived after 4 days) was determined.
# DU145 [3] = test: In vitro colorimetric cell death assay (MTT); type: cell-based; details: Homo sapiens
# Procedure: as §1, §2
# L 929 = test: In vitro colorimetric cell death assay (MTT); type: cell-based; details: Mus musculus, L929, 48 h
# Procedure: as §1, §2
# [4] = system: MCF10A (normal breast cell line); test: In vitro colorimetric cell death assay (MTT); type: cell-based; details: 48 hours
# Procedure: as §1, §2
# [5] = system: breast cancer cells MCF-7; test: In vitro 3D primary sphere forming stem cell assay; type: cell-based
# Procedure: (§5) This assay measures the ability of cancer stem cells to form spheres in a serum free media where the spheres are in a suspended form. Through this assay we evaluated the potency of the compounds of the invention to kill cancer stem cells in comparison with the known chemotherapeutic agent Cisplatin.
# (§6) An exemplary procedure for the assay follows. Cells were grown in three dimensions on a plastic substrate, harvested in suspension in serum-free media, then the cells in the sample were trypsinized and a single cell suspension was formed by passing through a cell strainer. The cells were diluted according to the predetermined plating efficiency for the cell line being studied by suspending the cells in stem cell culture medium. 100 uL of this suspension was added into each well of a 96 well suspension plate, and the plate was incubated at 37 degrees Celsius in 5% CO2 atmosphere for 24 hours, then 2 uL of appropriate concentrations of the compounds of the invention and cisplatin were added into each respective well along with 100 uL of stem cell culture medium, and the plates were incubated at 37 degrees Celsius under 5% CO2 atmosphere for 72 hours. 2.5 uL of the compounds of the invention and cisplatin were added to each respective well along with 50 uL of stem cell culture medium and then the plates were incubated at 37 degrees Celsius under 5% CO2 atmosphere for 72 hours. 3 uL of appropriate concentrations of the compounds of the invention and cisplatin were added to each respective well along with 50 uL of stem cell culture medium and then the plates were incubated at 37 degrees Celsius under 5% CO2 atmosphere for 72 hours, then the spheres formed were observed under a microscope then counted and scored by size.
# (§7) Results of the in vitro 3D sphere forming stem cell assay are set forth in a tabular manner. The number in each box is the total number of spheres formed in the presence of either cisplatin or compound I-2 or compound I-3 at each drug concentration. GC refers to a growth control performed in the absence of drug or solvent (DMSO). GCD refers to a growth control performed in the absence of drug, but in the presence of DMSO.
# [6] = system: breast cancer cells MDA MB 231; test: In vitro 3D primary sphere forming stem cell assay; type: cell-based
# Procedure: as §5, §6, §7
# DU145 [7] = test: In vitro soft agar colony forming growth assay; type: cell-based; details: Homo sapiens, DU-145, 168 h, one week
# Procedure: as §3, §4
# T47D [8] = test: In vitro soft agar colony forming growth assay; type: cell-based; details: Homo sapiens, 168 h, one week
# Procedure: as §3, §4
# PC3 [9] = test: In vitro soft agar colony forming growth assay; type: cell-based; details: Homo sapiens, PC-3, 168 h, one week
# Procedure: as §3, §4
# T47D [10] = test: In vitro colorimetric cell death assay (MTT); type: cell-based; details: Homo sapiens, 48 hours
# Procedure: as §1, §2
# LNCaP = test: In vitro colorimetric cell death assay (MTT); type: cell-based; details: Homo sapiens, 48 hours
# Procedure: as §1, §2
# MDAMB231 [11] = test: In vitro colorimetric cell death assay (MTT); type: cell-based; details: Homo sapiens, MDA-MB-231, 48 hours
# Procedure: as §1, §2
# PC3 [12] = test: In vitro colorimetric cell death assay (MTT); type: cell-based; details: Homo sapiens, PC-3, 48 hours
# Procedure: as §1, §2
smiles,measurement,setting,value
COc1cc2c(OC3OCC(OC)C(OC)C3OC(C)=O)c3c(c(-c4ccc5c(c4)OCO5)c2cc1OC)C(=O)OC3 (stereo not drawn) [I-1],anticancer activity in cancer cell lines as compared to cisplatin,cancer cell lines,high anticancer activity
same,IC50,MDAMB231 [1],5.88 µM
same,IC50,L929,3.63 µM
same,IC50,HeLa,5.12 µM
same,Number of mice surviving after injection,"[2]; 2.5 mg/kg single dose i.p., day 0",6/6
same,Number of mice surviving after injection,"[2]; 2.5 mg/kg single dose i.p., day 1",6/6
same,Number of mice surviving after injection,"[2]; 2.5 mg/kg single dose i.p., day 2",6/6
same,Number of mice surviving after injection,"[2]; 2.5 mg/kg single dose i.p., day 3",6/6
same,Number of mice surviving after injection,"[2]; 2.5 mg/kg single dose i.p., day 4",6/6
same,Number of mice surviving after injection,"[2]; 5 mg/kg single dose i.p., day 0",6/6
same,Number of mice surviving after injection,"[2]; 5 mg/kg single dose i.p., day 1",6/6
same,Number of mice surviving after injection,"[2]; 5 mg/kg single dose i.p., day 2",6/6
same,Number of mice surviving after injection,"[2]; 5 mg/kg single dose i.p., day 3",6/6
same,Number of mice surviving after injection,"[2]; 5 mg/kg single dose i.p., day 4",6/6
same,Number of mice surviving after injection,"[2]; 10 mg/kg single dose i.p., day 0",6/6
same,Number of mice surviving after injection,"[2]; 10 mg/kg single dose i.p., day 1",4/6
same,Number of mice surviving after injection,"[2]; 10 mg/kg single dose i.p., day 2",4/6
same,Number of mice surviving after injection,"[2]; 10 mg/kg single dose i.p., day 3",4/6
same,Number of mice surviving after injection,"[2]; 10 mg/kg single dose i.p., day 4",4/6
same,Number of mice surviving after injection,"[2]; 30 mg/kg single dose i.p., day 0",4/6
same,Number of mice surviving after injection,"[2]; 30 mg/kg single dose i.p., day 1",4/6
same,Number of mice surviving after injection,"[2]; 30 mg/kg single dose i.p., day 2",0/6
same,Number of mice surviving after injection,"[2]; 30 mg/kg single dose i.p., day 3",0/6
same,Number of mice surviving after injection,"[2]; 30 mg/kg single dose i.p., day 4",0/6
same,MTD,"[2]; single dose i.p., nude mice",5-10 mg/kg body weight
same,dose that resulted in 100% survival of mice after 4 days,"[2]; single dose i.p., nude mice",about 5 mg/kg
same,IC50,"DU145 [3]; DU-145, 48 h",37.6 µM
same,IC50,L 929,1.23 µM
same,IC50,[4],No activity
"COc1cc2c(OC3OCC(O)C(O)C3O)c3c(c(-c4ccc5c(c4)OCO5)c2cc1OC)C(=O)OC3 (stereo not drawn) [I-3, 9-(1,3-benzodioxol-5-yl)-4-[(3,4,5-trihydroxytetrahydro-2H-pyran-2-yl)oxy]naphtho-6,7-dimethoxynaphtho[2,3-c]furan-1(3H)-one]","numbers of primary spheres formed, compared with cisplatin",[5]; MCF-7,significantly less
same,# of 3D Primary Spheres Formed of Cells MCF-7 (±SD),[5]; final conc. 0.125 μM,74(±10)
same,# of 3D Primary Spheres Formed of Cells MCF-7 (±SD),[5]; final conc. 1.25 μM,57(±5)
same,# of 3D Primary Spheres Formed of Cells MCF-7 (±SD),[5]; final conc. 12.5 μM,48(±10)
same,# of 3D Primary Spheres Formed of Cells MCF-7 (±SD),[5]; final conc. 125 μM,28(±6)
same,# of 3D Primary Spheres Formed of Cells MCF-7 (±SD),[5]; final conc. 1250 μM,0(±0)
same,"numbers of primary spheres formed, compared with cisplatin",[6]; MDA MB 231,significantly less
same,# of 3D Primary Spheres Formed of Cells MDA MB231 (±SD),[6]; final conc. 0.125 μM,54(±5)
same,# of 3D Primary Spheres Formed of Cells MDA MB231 (±SD),[6]; final conc. 1.25 μM,38(±5)
same,# of 3D Primary Spheres Formed of Cells MDA MB231 (±SD),[6]; final conc. 12.5 μM,31(±5)
same,# of 3D Primary Spheres Formed of Cells MDA MB231 (±SD),[6]; final conc. 125 μM,9(±2)
same,# of 3D Primary Spheres Formed of Cells MDA MB231 (±SD),[6]; final conc. 1250 μM,0(±0)
same,anticancer activity in cancer cell lines as compared to cisplatin,cancer cell lines,high anticancer activity
same,IC50,DU145 [7],0.661 µM
same,IC50,T47D [8],0.7 µM
same,IC50,"MDAMB231 [1]; MDAMB231, soft agar, one week, read-out: IC 50",0.55 µM
same,IC50,PC3 [9],0.85 µM
same,IC50,"DU145 [3]; DU-145, DU145, MTT, 48 hours, read-out: IC 50",9.55 µM
same,IC50,T47D [10],21.1 µM
same,IC50,LNCaP,3.16 µM
same,IC50,MDAMB231 [11],10 µM
same,IC50,PC3 [12],13.5 µM
